Reference: patent publication US10772893B2, “2-(morpholin-4-yl)-1,7-naphthyridines” (BAYER PHARMA AKTIENGESELLSCHAFT, priority 2014, dated 2020)

What follows are compounds tested on HeLa cells (assay: Proliferation assay, crystal violet staining). Conditions: Homo sapiens, 96 h, read-out: Inhibition of HeLa cell proliferation.
Procedure: After 24 hours, the cells of one plate (zero plate) were dyed with crystal violet (see below), whereas the medium of the other plates was replaced with fresh culture medium (200 μl) to which the test substances were added in various concentrations (0 μM, and also in the range of 0.001-10 μM; the final concentration of the solvent dimethyl sulphoxide was 0.1 or 0.5%). The cells were incubated for 4 days in the presence of the test substances. […] After washing the fixed cells three times with water, the plates were dried at room temperature. The cells were stained by adding 100 μl/measurement point of a 0.1% strength crystal violet solution (pH adjusted to pH 3 by adding acetic acid). After washing the cells three times with water, the plates were dried at room temperature. The dye was dissolved by adding 100 μl/measurement point of a 10% strength acetic acid solution. […] The percentage change in cell growth was calculated by normalizing the measured values to the absorbance values of the zero plate (=0%) and the absorbance of the untreated (0 W) cells (=100%). The IC50 values were determined by means of a four parameter fit.

Structure (SMILES) | IC50 [nM]
CCOP(=O)(CC(C)C)c1cc(N2CCOC[C@H]2C)nc2c(-c3ccn[nH]3)nccc12 (stereo partly drawn) [Example 144, ethyl isobutyl{2-[(3R)-3-methylmorpholin-4-yl]-8-(1H-pyrazol-5-yl)-1,7-naphthyridin-4-yl}phosphinate] | > 3000

Same assay, conditions: Homo sapiens, 96 h, read-out: Inhibition of HeLa cell proliferation, HeLa cells, 4 days incubation

IC50 [nM] | Structure (SMILES)
686 | CCC(O)(CC)c1cc(N2CCOC[C@H]2C)nc2c(-c3ccn[nH]3)nccc12 [Example 129, 3-{2-[(3R)-3-methylmorpholin-4-yl]-8-(1H-pyrazol-5-yl)-1,7-naphthyridin-4-yl}pentan-3-ol]
374 | C[C@@H]1COCCN1c1cc(-c2cncc(Cl)c2)c2ccnc(-c3ccn[nH]3)c2n1 [Example 130, 4-(5-chloropyridin-3-yl)-2-[(3R)-3-methylmorpholin-4-yl]-8-(1H-pyrazol-5-yl)-1,7-naphthyridine]
349 | C[C@@H]1COCCN1c1cc(-c2ccc(F)cc2N)c2ccnc(-c3ccn[nH]3)c2n1 [Example 131, 5-fluoro-2-{2-[(3R)-3-methylmorpholin-4-yl]-8-(1H-pyrazol-5-yl)-1,7-naphthyridin-4-yl}aniline]
507 | C[C@@H]1COCCN1c1cc(-c2cccc(S(C)(=O)=O)c2F)c2ccnc(-c3ccn[nH]3)c2n1 [Example 132, 4-[2-fluoro-3-(methylsulfonyl)phenyl]-2-[(3R)-3-methylmorpholin-4-yl]-8-(1H-pyrazol-5-yl)-1,7-naphthyridine]
1070 | C[C@@H]1COCCN1c1cc(-c2ccnn2C2COC2)c2ccnc(-c3ccn[nH]3)c2n1 [Example 133, 2-[(3R)-3-methylmorpholin-4-yl]-4-[1-(oxetan-3-yl)-1H-pyrazol-5-yl]-8-(1H-pyrazol-5-yl)-1,7-naphthyridine]
1530 | C[C@@H]1COCCN1c1cc(-c2ccc(N3CCCC3)cc2F)c2ccnc(-c3ccn[nH]3)c2n1 [Example 134, 4-[2-fluoro-4-(pyrrolidin-1-yl)phenyl]-2-[(3R)-3-methylmorpholin-4-yl]-8-(1H-pyrazol-5-yl)-1,7-naphthyridine]
1820 | COCc1noc(C)c1-c1cc(N2CCOC[C@H]2C)nc2c(-c3ccn[nH]3)nccc12 [Example 135, 4-[3-(methoxymethyl)-5-methyl-1,2-oxazol-4-yl]-2-[(3R)-3-methylmorpholin-4-yl]-8-(1H-pyrazol-5-yl)-1,7-naphthyridine]
575 | Cc1nnc(-c2cc(N3CCOC[C@H]3C)nc3c(-c4ccn[nH]4)nccc23)o1 [Example 136, 2-[(3R)-3-methylmorpholin-4-yl]-4-(5-methyl-1,3,4-oxadiazol-2-yl)-8-(1H-pyrazol-5-yl)-1,7-naphthyridine]
619 | C[C@@H]1COCCN1c1cc(N=S(C)(=O)c2ccc(F)cc2)c2ccnc(-c3ccn[nH]3)c2n1 (stereo partly drawn) [Example 138, 4-{[(4-fluorophenyl)(methyl)oxido-λ^6-sulfanylidene]amino}-2-[(3R)-3-methylmorpholin-4-yl]-8-(1H-pyrazol-5-yl)-1,7-naphthyridine]
1370 | C[C@@H]1COCCN1c1cc(N=S(C)(=O)c2ccccc2F)c2ccnc(-c3ccn[nH]3)c2n1 (stereo partly drawn) [Example 139, 4-{[(2-fluorophenyl)(methyl)oxido-λ^6-sulfanylidene]amino}-2-[(3R)-3-methylmorpholin-4-yl]-8-(1H-pyrazol-5-yl)-1,7-naphthyridine]
1590 | C[C@@H]1COCCN1c1cc(P(C)(C)=O)c2ccnc(-c3ccn[nH]3)c2n1 [Example 142, 4-(dimethylphosphoryl)-2-[(3R)-3-methylmorpholin-4-yl]-8-(1H-pyrazol-5-yl)-1,7-naphthyridine]
543 | CCP(=O)(CC)c1cc(N2CCOC[C@H]2C)nc2c(-c3ccn[nH]3)nccc12 [Example 143, 4-(diethylphosphoryl)-2-[(3R)-3-methylmorpholin-4-yl]-8-(1H-pyrazol-5-yl)-1,7-naphthyridine]
1110 | CC(C)Cn1nccc1-c1cc(N2CCOC[C@H]2C)nc2c(-c3ccn[nH]3)nccc12 [Example 146, 4-(1-isobutyl-1H-pyrazol-5-yl)-2-[(3R)-3-methylmorpholin-4-yl]-8-(1H-pyrazol-5-yl)-1,7-naphthyridine]
953 | C[C@@H]1COCCN1c1cc(-c2cnc(S(C)(=O)=O)c(F)c2)c2ccnc(-c3ccn[nH]3)c2n1 [Example 147, 4-[5-fluoro-6-(methylsulfonyl)pyridin-3-yl]-2-[(3R)-3-methylmorpholin-4-yl]-8-(1H-pyrazol-5-yl)-1,7-naphthyridine]
805 | C[C@@H]1COCCN1c1cc(N2CCOCC2)nc2c(-c3ccn[nH]3)nccc12 [Example 148, 4-[(3R)-3-methylmorpholin-4-yl]-2-(morpholin-4-yl)-8-(1H-pyrazol-5-yl)-1,7-naphthyridine]
671 | C[C@@H]1COCCN1c1cc(-c2cccc(F)n2)c2ccnc(-c3ccn[nH]3)c2n1 [Example 152, 4-(6-fluoropyridin-2-yl)-2-[(3R)-3-methylmorpholin-4-yl]-8-(1H-pyrazol-5-yl)-1,7-naphthyridine]
759 | CCn1cnc(-c2cc(N3CCOC[C@H]3C)nc3c(-c4ccn[nH]4)nccc23)c1 [Example 153, 4-(1-ethyl-1H-imidazol-4-yl)-2-[(3R)-3-methylmorpholin-4-yl]-8-(1H-pyrazol-5-yl)-1,7-naphthyridine]
959 | C[C@@H]1COCCN1c1cc(-c2cccnc2N)c2ccnc(-c3ccn[nH]3)c2n1 [Example 155, 3-{2-[(3R)-3-methylmorpholin-4-yl]-8-(1H-pyrazol-5-yl)-1,7-naphthyridin-4-yl}pyridin-2-amine]

IC50 [nM] | Structure (SMILES)
328 | C[C@@H]1COCCN1c1cc(-c2ccn(CCF)n2)c2ccnc(-c3ccn[nH]3)c2n1 [Example 158, 4-[1-(2-fluoroethyl)-1H-pyrazol-3-yl]-2-[(3R)-3-methylmorpholin-4-yl]-8-(1H-pyrazol-5-yl)-1,7-naphthyridine]
61.6 | C[C@@H]1COCCN1c1cc(-c2ccnn2CCF)c2ccnc(-c3ccn[nH]3)c2n1 [Example 159, 4-[1-(2-fluoroethyl)-1H-pyrazol-5-yl]-2-[(3R)-3-methylmorpholin-4-yl]-8-(1H-pyrazol-5-yl)-1,7-naphthyridine]
451 | C[C@@H]1COCCN1c1cc(-c2ccn(CCO)n2)c2ccnc(-c3ccn[nH]3)c2n1 [Example 160, 2-(3-{2-[(3R)-3-methylmorpholin-4-yl]-8-(1H-pyrazol-5-yl)-1,7-naphthyridin-4-yl}-1H-pyrazol-1-yl)ethanol]
588 | C[C@@H]1COCCN1c1cc(-c2ccn(CC(C)(C)O)n2)c2ccnc(-c3ccn[nH]3)c2n1 [Example 161, 2-methyl-1-(3-{2-[(3R)-3-methylmorpholin-4-yl]-8-(1H-pyrazol-5-yl)-1,7-naphthyridin-4-yl}-1H-pyrazol-1-yl)propan-2-ol]
1220 | C[C@@H]1CN(c2cc(N3CCOCC3)nc3c(-c4ccn[nH]4)nccc23)CCO1 [Example 162, 4-[(2R)-2-methylmorpholin-4-yl]-2-(morpholin-4-yl)-8-(1H-pyrazol-5-yl)-1,7-naphthyridine]
2410 | C[C@H]1CN(c2cc(N3CCOCC3)nc3c(-c4ccn[nH]4)nccc23)CCO1 [Example 170, 4-[(2S)-2-methylmorpholin-4-yl]-2-(morpholin-4-yl)-8-(1H-pyrazol-5-yl)-1,7-naphthyridine]
2100 | C[C@@H]1COCCN1c1cc(OC(F)F)c2ccnc(-c3ccn[nH]3)c2n1 [Example 172, 4-(difluoromethoxy)-2-[(3R)-3-methylmorpholin-4-yl]-8-(1H-pyrazol-5-yl)-1,7-naphthyridine]
> 3000 | CC(C)(O)c1cc(N2CCOCC2)nc2c(-c3ccn[nH]3)nccc12 [Example 173, 2-[2-(morpholin-4-yl)-8-(1H-pyrazol-5-yl)-1,7-naphthyridin-4-yl]propan-2-ol]
2520 | O=C1CN(c2cc(N3CCOCC3)nc3c(-c4ccn[nH]4)nccc23)CCN1 [Example 176, 4-[2-(morpholin-4-yl)-8-(1H-pyrazol-5-yl)-1,7-naphthyridin-4-yl]piperazin-2-one]
> 3000 | CP(C)(=O)c1cc(N2CCOCC2)nc2c(-c3ccn[nH]3)nccc12 [Example 177, 4-(dimethylphosphoryl)-2-(morpholin-4-yl)-8-(1H-pyrazol-5-yl)-1,7-naphthyridine]
> 3000 | C[C@@H]1CN(c2cc(N3CCOCC3)nc3c(-c4ccn[nH]4)nccc23)C[C@H](C)N1 [Example 179, 4-[(cis)-3,5-dimethylpiperazin-1-yl]-2-(morpholin-4-yl)-8-(1H-pyrazol-5-yl)-1,7-naphthyridine]
> 3000 | c1cc(-c2nccc3c(N4C[C@@H]5C[C@H]4CO5)cc(N4CCOCC4)nc23)[nH]n1 [Example 185, 2-(morpholin-4-yl)-4-[(1S,4S)-2-oxa-5-azabicyclo[2.2.1]hept-5-yl]-8-(1H-pyrazol-5-yl)-1,7-naphthyridine]
789 | CSCc1cc(N2CCOC[C@H]2C)nc2c(-c3ccn[nH]3)nccc12 [Example 186, 2-[(3R)-3-methylmorpholin-4-yl]-4-[(methylsulfanyl)methyl]-8-(1H-pyrazol-5-yl)-1,7-naphthyridine]
1010 | C[C@@H]1COCCN1c1cc(C2(O)CCCCC2)c2ccnc(-c3ccn[nH]3)c2n1 [Example 189, 1-{2-[(3R)-3-methylmorpholin-4-yl]-8-(1H-pyrazol-5-yl)-1,7-naphthyridin-4-yl}cyclohexanol]
2120 | CS(=O)(=NC#N)c1ccc(-c2cc(N3CCOCC3)nc3c(-c4ccn[nH]4)nccc23)cc1 (stereo not drawn) [Example 191, (methyl{4-[2-(morpholin-4-yl)-8-(1H-pyrazol-5-yl)-1,7-naphthyridin-4-yl]phenyl}oxido-λ^6-sulfanylidene)cyanamide]
892 | C[C@@H]1COCCN1c1cc(-c2[nH]nnc2C2CC2)c2ccnc(-c3ccn[nH]3)c2n1 [Example 194, 4-(4-cyclopropyl-1H-1,2,3-triazol-5-yl)-2-[(3R)-3-methylmorpholin-4-yl]-8-(1H-pyrazol-5-yl)-1,7-naphthyridine]
3010 | CC[S+]([O-])c1cc(N2CCOCC2)nc2c(-c3ccn[nH]3)nccc12 (stereo not drawn) [Example 195, 4-ethylsulfinyl-2-(morpholin-4-yl)-8-(1H-pyrazol-5-yl)-1,7-naphthyridine]
